{"source": "ChEMBL document CHEMBL4257522", "about": "“Synthesis and preliminary anti-inflammatory and anti-bacterial evaluation of some diflunisal aza-analogs” (Medchemcomm, 2018)", "key": {"[1]": {"test_system": "Staphylococcus aureus", "experiment": "Potentiation of erythromycin-induced antibacterial activity against Staphylococcus aureus ATCC 33592 assessed as minimum modulatory concentration up to 32 uM measured after 16 hrs in presence of MIC/4 erythromycin", "type": "functional", "settings": "ATCC 33592, 16 h, read-out: MEC"}, "[2]": {"test_system": "Staphylococcus aureus", "experiment": "Potentiation of geneticin-induced antibacterial activity against Staphylococcus aureus ATCC 33592 assessed as minimum modulatory concentration up to 32 uM measured after 16 hrs in presence of MIC/4 geneticin", "type": "functional", "settings": "ATCC 33592, 16 h, read-out: MEC"}, "[3]": {"test_system": "Escherichia coli", "experiment": "Potentiation of erythromycin-induced antibacterial activity against Escherichia coli ATCC 43894 assessed as minimum modulatory concentration up to 32 uM measured after 16 hrs in presence of MIC/4 erythromycin", "type": "functional", "settings": "ATCC 43894, 16 h, read-out: MEC"}, "[4]": {"test_system": "Streptococcus pyogenes", "experiment": "Potentiation of geneticin-induced antibacterial activity against Streptococcus pyogenes ATCC 14289 assessed as minimum modulatory concentration up to 32 uM measured after 16 hrs in presence of MIC/4 geneticin", "type": "functional", "settings": "ATCC 14289, 16 h, read-out: MEC"}, "[5]": {"test_system": "Macrophage cell line", "experiment": "Induction of IL-1beta production in human PBMC-differentiated macrophages after 24 hrs by ELISA", "type": "cell-based"}, "[6]": {"test_system": "Klebsiella pneumoniae", "experiment": "Potentiation of erythromycin-induced antibacterial activity against Klebsiella pneumoniae ATCC 13883 assessed as minimum modulatory concentration up to 32 uM measured after 16 hrs in presence of MIC/4 erythromycin", "type": "functional", "settings": "ATCC 13883, 16 h, read-out: MEC"}, "[7]": {"test_system": "Macrophage cell line", "experiment": "Induction of prostaglandin production in human PBMC-differentiated macrophages after 24 hrs by ELISA", "type": "cell-based"}, "[8]": {"test_system": "Macrophage cell line", "experiment": "Antiinflammatory activity in human PBMC-differentiated macrophages assessed as inhibition of LPS-induced IL-8 production at 0.01 to 10 uM measured after 24 hrs by ELISA", "type": "functional, cell-based"}, "[9]": {"test_system": "Macrophage cell line", "experiment": "Induction of TNFalpha production in human PBMC-differentiated macrophages after 24 hrs by ELISA", "type": "cell-based"}, "[10]": {"test_system": "Pseudomonas aeruginosa", "experiment": "Potentiation of ciprofloxacin-induced antibacterial activity against Pseudomonas aeruginosa ATCC BAA-2108 assessed as minimum modulatory concentration up to 32 uM measured after 16 hrs in presence of MIC/4 ciprofloxacin", "type": "functional", "settings": "ATCC BAA-2108, 16 h, read-out: MEC"}, "[11]": {"test_system": "Streptococcus pyogenes", "experiment": "Potentiation of tetracycline-induced antibacterial activity against Streptococcus pyogenes ATCC 14289 assessed as minimum modulatory concentration up to 32 uM measured after 16 hrs in presence of MIC/4 tetracycline", "type": "functional", "settings": "ATCC 14289, 16 h, read-out: MEC"}, "[12]": {"test_system": "Enterococcus faecium", "experiment": "Potentiation of ciprofloxacin-induced antibacterial activity against Enterococcus faecium ATCC 700221 assessed as minimum modulatory concentration up to 32 uM measured after 16 hrs in presence of MIC/4 ciprofloxacin", "type": "functional", "settings": "ATCC 700221, 16 h, read-out: MEC"}, "[13]": {"test_system": "Escherichia coli", "experiment": "Toxicity in Escherichia coli ATCC 43894 up to 32 uM measured after 16 hrs", "type": "organism-based"}, "[14]": {"test_system": "Staphylococcus aureus", "experiment": "Potentiation of tetracycline-induced antibacterial activity against Staphylococcus aureus ATCC 33592 assessed as minimum modulatory concentration up to 32 uM measured after 16 hrs in presence of MIC/4 tetracycline", "type": "functional", "settings": "ATCC 33592, 16 h, read-out: MEC"}, "[15]": {"test_system": "Enterococcus faecium", "experiment": "Potentiation of geneticin-induced antibacterial activity against Enterococcus faecium ATCC 700221 assessed as minimum modulatory concentration up to 32 uM measured after 16 hrs in presence of MIC/4 geneticin", "type": "functional", "settings": "ATCC 700221, 16 h, read-out: MEC"}, "[16]": {"test_system": "Staphylococcus aureus", "experiment": "Potentiation of ciprofloxacin-induced antibacterial activity against Staphylococcus aureus ATCC 33592 assessed as minimum modulatory concentration up to 32 uM measured after 16 hrs in presence of MIC/4 ciprofloxacin", "type": "functional", "settings": "ATCC 33592, 16 h, read-out: MEC"}, "[17]": {"test_system": "Streptococcus pyogenes", "experiment": "Potentiation of erythromycin-induced antibacterial activity against Streptococcus pyogenes ATCC 14289 assessed as minimum modulatory concentration up to 32 uM measured after 16 hrs in presence of MIC/4 erythromycin", "type": "functional", "settings": "ATCC 14289, 16 h, read-out: MEC"}, "[18]": {"test_system": "Pseudomonas aeruginosa", "experiment": "Potentiation of tetracycline-induced antibacterial activity against Pseudomonas aeruginosa ATCC BAA-2108 assessed as minimum modulatory concentration up to 32 uM measured after 16 hrs in presence of MIC/4 tetracycline", "type": "functional", "settings": "ATCC BAA-2108, 16 h, read-out: MEC"}, "[19]": {"test_system": "Enterococcus faecium", "experiment": "Toxicity in Enterococcus faecium ATCC 700221 up to 32 uM measured after 16 hrs", "type": "organism-based", "settings": "in vitro"}, "[20]": {"test_system": "Pseudomonas aeruginosa", "experiment": "Potentiation of erythromycin-induced antibacterial activity against Pseudomonas aeruginosa ATCC BAA-2108 assessed as minimum modulatory concentration up to 32 uM measured after 16 hrs in presence of MIC/4 erythromycin", "type": "functional", "settings": "ATCC BAA-2108, 16 h, read-out: MEC"}, "[21]": {"test_system": "Enterococcus faecium", "experiment": "Potentiation of methicillin-induced antibacterial activity against Enterococcus faecium ATCC 700221 assessed as minimum modulatory concentration up to 32 uM measured after 16 hrs in presence of MIC/4 methicillin", "type": "functional", "settings": "ATCC 700221, 16 h, read-out: MEC"}, "[22]": {"test_system": "Staphylococcus aureus", "experiment": "Potentiation of methicillin-induced antibacterial activity against Staphylococcus aureus ATCC 33592 assessed as minimum modulatory concentration up to 32 uM measured after 16 hrs in presence of MIC/4 methicillin", "type": "functional", "settings": "ATCC 33592, 16 h, read-out: MEC"}, "[23]": {"test_system": "Streptococcus pyogenes", "experiment": "Potentiation of methicillin-induced antibacterial activity against Streptococcus pyogenes ATCC 14289 assessed as minimum modulatory concentration up to 32 uM measured after 16 hrs in presence of MIC/4 methicillin", "type": "functional", "settings": "ATCC 14289, 16 h, read-out: MEC"}, "[24]": {"test_system": "Klebsiella pneumoniae", "experiment": "Toxicity in Klebsiella pneumoniae ATCC 13883 up to 32 uM measured after 16 hrs", "type": "organism-based"}, "[25]": {"test_system": "Macrophage cell line", "experiment": "Cytotoxicity against human PBMC-differentiated macrophages treated for 24 hrs followed by compound washout and measured after 48 hrs by MTT assay", "type": "cell-based"}, "[26]": {"test_system": "Staphylococcus aureus", "experiment": "Toxicity in Staphylococcus aureus ATCC 33592 up to 32 uM measured after 16 hrs", "type": "organism-based"}, "[27]": {"test_system": "Streptococcus pyogenes", "experiment": "Potentiation of ciprofloxacin-induced antibacterial activity against Streptococcus pyogenes ATCC 14289 assessed as minimum modulatory concentration up to 32 uM measured after 16 hrs in presence of MIC/4 ciprofloxacin", "type": "functional", "settings": "ATCC 14289, 16 h, read-out: MEC"}, "[28]": {"test_system": "Enterococcus faecium", "experiment": "Potentiation of tetracycline-induced antibacterial activity against Enterococcus faecium ATCC 700221 assessed as minimum modulatory concentration up to 32 uM measured after 16 hrs in presence of MIC/4 tetracycline", "type": "functional", "settings": "ATCC 700221, 16 h, read-out: MEC"}, "[29]": {"test_system": "Klebsiella pneumoniae", "experiment": "Potentiation of geneticin-induced antibacterial activity against Klebsiella pneumoniae ATCC 13883 assessed as minimum modulatory concentration up to 32 uM measured after 16 hrs in presence of MIC/4 geneticin", "type": "functional", "settings": "ATCC 13883, 16 h, read-out: MEC"}, "[30]": {"test_system": "Escherichia coli", "experiment": "Potentiation of geneticin-induced antibacterial activity against Escherichia coli ATCC 43894 assessed as minimum modulatory concentration up to 32 uM measured after 16 hrs in presence of MIC/4 geneticin", "type": "functional", "settings": "ATCC 43894, 16 h, read-out: MEC"}, "[31]": {"test_system": "Klebsiella pneumoniae", "experiment": "Potentiation of methicillin-induced antibacterial activity against Klebsiella pneumoniae ATCC 13883 assessed as minimum modulatory concentration up to 32 uM measured after 16 hrs in presence of MIC/4 methicillin", "type": "functional", "settings": "ATCC 13883, 16 h, read-out: MEC"}, "[32]": {"test_system": "Escherichia coli", "experiment": "Potentiation of ciprofloxacin-induced antibacterial activity against Escherichia coli ATCC 43894 assessed as minimum modulatory concentration up to 32 uM measured after 16 hrs in presence of MIC/4 ciprofloxacin", "type": "functional", "settings": "ATCC 43894, 16 h, read-out: MEC"}, "[33]": {"test_system": "Enterococcus faecium", "experiment": "Potentiation of erythromycin-induced antibacterial activity against Enterococcus faecium ATCC 700221 assessed as minimum modulatory concentration up to 32 uM measured after 16 hrs in presence of MIC/4 erythromycin", "type": "functional", "settings": "ATCC 700221, 16 h, read-out: MEC"}, "[34]": {"test_system": "Pseudomonas aeruginosa", "experiment": "Toxicity in Pseudomonas aeruginosa ATCC BAA-2108 up to 32 uM measured after 16 hrs", "type": "organism-based", "settings": "in vitro"}}, "note": "The source made the active and inactive calls. The rule behind the calls is not given here."}
{"compound": "O=C(O)c1cc(-c2ccc(F)cc2F)ccc1O", "note": "[DIFLUNISAL]", "values": [{"measurement": "minimal effective concentration", "setting": "[1]", "value": "> 32", "unit": "µM"}, {"measurement": "minimal effective concentration", "setting": "[2]", "value": "> 32", "unit": "µM"}, {"measurement": "minimal effective concentration", "setting": "[3]", "value": "> 32", "unit": "µM"}, {"measurement": "minimal effective concentration", "setting": "[4]", "value": "> 32", "unit": "µM"}, {"measurement": "Activity", "setting": "[5]", "value": "Non-Toxic"}, {"measurement": "minimal effective concentration", "setting": "[6]", "value": "> 32", "unit": "µM"}, {"measurement": "Activity", "setting": "[7]", "value": "Non-Toxic"}, {"measurement": "inhibition", "setting": "[8]", "value": "inactive"}, {"measurement": "Activity", "setting": "[9]", "value": "Non-Toxic"}, {"measurement": "minimal effective concentration", "setting": "[10]", "value": "> 32", "unit": "µM"}, {"measurement": "minimal effective concentration", "setting": "[11]", "value": "> 32", "unit": "µM"}, {"measurement": "minimal effective concentration", "setting": "[12]", "value": "> 32", "unit": "µM"}, {"measurement": "Activity", "setting": "[13]", "value": "Non-Toxic"}, {"measurement": "minimal effective concentration", "setting": "[14]", "value": "> 32", "unit": "µM"}, {"measurement": "minimal effective concentration", "setting": "[15]", "value": "> 32", "unit": "µM"}, {"measurement": "minimal effective concentration", "setting": "[16]", "value": "> 32", "unit": "µM"}, {"measurement": "minimal effective concentration", "setting": "[17]", "value": "> 32", "unit": "µM"}, {"measurement": "minimal effective concentration", "setting": "[18]", "value": "> 32", "unit": "µM"}, {"measurement": "Activity", "setting": "[19]", "value": "Non-Toxic"}, {"measurement": "minimal effective concentration", "setting": "[20]", "value": "> 32", "unit": "µM"}, {"measurement": "minimal effective concentration", "setting": "[21]", "value": 16, "unit": "µM"}, {"measurement": "minimal effective concentration", "setting": "[22]", "value": 8, "unit": "µM"}, {"measurement": "minimal effective concentration", "setting": "[23]", "value": 16, "unit": "µM"}, {"measurement": "Activity", "setting": "[24]", "value": "Non-Toxic"}, {"measurement": "IC50", "setting": "[25]", "value": 53, "unit": "µM"}, {"measurement": "Activity", "setting": "[26]", "value": "Non-Toxic"}, {"measurement": "minimal effective concentration", "setting": "[27]", "value": "> 32", "unit": "µM"}, {"measurement": "minimal effective concentration", "setting": "[28]", "value": "> 32", "unit": "µM"}, {"measurement": "minimal effective concentration", "setting": "[29]", "value": "> 32", "unit": "µM"}, {"measurement": "minimal effective concentration", "setting": "[30]", "value": "> 32", "unit": "µM"}, {"measurement": "minimal effective concentration", "setting": "[31]", "value": "> 32", "unit": "µM"}, {"measurement": "minimal effective concentration", "setting": "[32]", "value": "> 32", "unit": "µM"}, {"measurement": "minimal effective concentration", "setting": "[33]", "value": "> 32", "unit": "µM"}, {"measurement": "Activity", "setting": "[34]", "value": "Non-Toxic"}]}
